According to patent US7642251B2, “Compounds for the treatment of hepatitis C” (Bristol-Myers Squibb Company, priority 2007, dated 2010):
Where two headings read alike, the source gives them in different places.

Assays:
HCV NS5B = target: T1, HCV NS5B (Hepatitis C virus genotype 1b, UniProt Q9WMX2); test: Modified HCV NS5B RdRp enzyme assay (preincubation protocol); assay type: biochemical
T1 construct: The cDNA encoding the NS5B protein of HCV, genotype 1b; made in house; host or cells: E. coli BL21(DE3)
T1 sequence (Q9WMX2 2420-2992): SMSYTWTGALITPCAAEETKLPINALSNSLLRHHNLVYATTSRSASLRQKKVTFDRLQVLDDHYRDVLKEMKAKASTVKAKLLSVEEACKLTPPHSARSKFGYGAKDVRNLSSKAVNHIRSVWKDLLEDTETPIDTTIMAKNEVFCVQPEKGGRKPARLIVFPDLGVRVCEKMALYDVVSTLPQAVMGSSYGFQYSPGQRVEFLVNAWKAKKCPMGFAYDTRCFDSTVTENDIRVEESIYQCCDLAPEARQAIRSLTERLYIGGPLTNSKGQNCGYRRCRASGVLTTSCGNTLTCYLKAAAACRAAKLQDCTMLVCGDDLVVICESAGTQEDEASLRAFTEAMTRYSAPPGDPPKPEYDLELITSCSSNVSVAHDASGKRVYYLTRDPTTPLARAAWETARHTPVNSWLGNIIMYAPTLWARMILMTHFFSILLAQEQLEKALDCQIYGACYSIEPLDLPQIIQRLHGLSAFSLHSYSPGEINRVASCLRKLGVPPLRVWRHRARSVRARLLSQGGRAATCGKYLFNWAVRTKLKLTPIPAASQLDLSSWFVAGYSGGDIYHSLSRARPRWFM
Procedure: HCV NS5B RdRp cloning, expression, and purification. The cDNA encoding the NS5B protein of HCV, genotype 1b, was cloned into the pET21a expression vector. The protein was expressed with an 18 amino acid C-terminal truncation to enhance the solubility. The E. coli competent cell line BL21(DE3) was used for expression of the protein. Cultures were grown at 37° C. for ˜4 hours until the cultures reached an optical density of 2.0 at 600 nm. The cultures were cooled to 20° C. and induced with 1 mM IPTG. Fresh ampicillin was added to a final concentration of 50 μg/ml and the cells were grown overnight at 20° C.
Cell pellets (3 L) were lysed for purification to yield 15-24 mgs of purified NS5B. The lysis buffer consisted of 20 mM Tris-HCl, pH 7.4, 500 mM NaCl, 0.5% triton X-100, 1 mM DTT, 1 mM EDTA, 20% glycerol, 0.5 mg/ml lysozyme, 10 mM MgCl2, 15 ug/ml deoxyribonuclease I, and Complete™ protease inhibitor tablets (Roche). After addition of the lysis buffer, frozen cell pellets were resuspended using a tissue homogenizer. To reduce the viscosity of the sample, aliquots of the lysate were sonicated on ice using a microtip attached to a Branson sonicator. The sonicated lysate was centrifuged at 100,000×g for 1 hr at 4° C. and filtered through a 0.2 μm filter unit (Corning).
The protein was purified using three sequential chromatography steps: Heparin sepharose CL-6B, polyU sepharose 4B, and Hitrap SP sepharose (Pharmacia). The chromatography buffers were identical to the lysis buffer but contained no lysozyme, deoxyribonuclease I, MgCl2 or protease inhibitor and the NaCl concentration of the buffer was adjusted according to the requirements for charging the protein onto the column. Each column was eluted with a NaCl gradient which varied in length from 5-50 column volumes depending on the column type. After the final chromatography step, the resulting purity of the enzyme is >90% based on SDS-PAGE analysis. The enzyme was aliquoted and stored at −80° C.
Standard HCV NS5B RdRp enzyme assay. HCV RdRp genotype 1b assays were run in a final volume of 60 μl in 96 well plates (Costar 3912). The assay buffer is composed of 20 mM Hepes, pH 7.5, 2.5 mM KCl, 2.5 mM MgCl2, 1 mM DTT, 1.6 U RNAse inhibitor (Promega N2515), 0.1 mg/ml BSA (Promega R3961), and 2% glycerol. All compounds were serially diluted (3-fold) in DMSO and diluted further in water such that the final concentration of DMSO in the assay was 2%. HCV RdRp genotype 1b enzyme was used at a final concentration of 28 nM. A polyA template was used at 6 nM, and a biotinylated oligo-dT12 primer was used at 180 nM final concentration. Template was obtained commercially (Amersham 27-4110). Biotinylated primer was prepared by Sigma Genosys. 3H-UTP was used at 0.6 μCi (0.29 μM total UTP). Reactions were initiated by the addition of enzyme, incubated at 30° C. for 60 min, and stopped by adding 25 μl of 50 mM EDTA containing SPA beads (4 μg/μl, Amersham RPNQ 0007). Plates were read on a Packard Top Count NXT after >1 hr incubation at room temperature.
Modified HCV NS5B RdRp enzyme assay. A modified enzyme assay was performed essentially as described for the standard enzyme assay except for the following: The biotinylated oligo dT12 primer was precaptured on streptavidin-coated SPA beads by mixing primer and beads in assay buffer and incubating at room temperature for one hour. Unbound primer was removed after centrifugation. The primer-bound beads were resuspended in 20 mM Hepes buffer, pH 7.5 and used in the assay at final concentrations of 20 nM primer and 0.67 μg/μl beads. Order of addition in the assay: enzyme (14 nM) was added to diluted compound followed by the addition of a mixture of template (0.2 nM), 3H-UTP (0.6 μCi, 0.29 μM), and primer-bound beads, to initiate the reaction; concentrations given are final. Reactions were allowed to proceed for 4 hours at 30° C.
IC50 values for compounds were determined using seven different [I]. […]

HCV replicon cells = test: HCV replicon FRET assay; assay type: cell-based; conditions: Hepatitis C virus
Text: FRET Assay Preparation. To perform the HCV FRET screening assay, 96-well cell culture plates were used. The FRET peptide (Anaspec, Inc.) (Taliani et al., Anal. Biochem. 1996, 240, 60-67) contains a fluorescence donor, EDANS, near one end of the peptide and an acceptor, DABCYL, near the other end. The fluorescence of the peptide is quenched by […] resonance energy transfer (RET) between the donor and the acceptor, but as the NS3 protease cleaves the peptide the products are released from RET quenching and the fluorescence of the donor becomes apparent. The assay reagent was made as follows: 5× cell Luciferase cell culture lysis reagent from Promega (#E153A) diluted to 1× with dH2O, NaCl added to 150 mM final, the FRET peptide diluted to 20 μM final from a 2 mM stock.
To prepare plates, HCV replicon cells, with or without a Renilla luciferase reporter gene, were trypsinized and placed into each well of a 96-well plate with titrated test compounds added in columns 3 through 12; columns 1 and 2 contained a control compound (HCV protease inhibitor), and the bottom row contained cells without compound. The plates were then placed in a CO2 incubator at 37° C.
Assays. Subsequent to addition of the test compounds described above (FRET Assay Preparation), at various times the plate was removed and Alamar blue solution (Trek Diagnostics, #00-100) was added per well as a measure of cellular toxicity. After reading in a Cytoflour 4000 instrument (PE Biosystems), plates were rinsed with PBS and then used for FRET assay by the addition of 30 ul of the FRET peptide assay reagent described above (FRET Assay Preparation) per well. The plate was then placed into the Cytoflour 4000 instrument which had been set to 340 excite/490 emission, automatic mode for 20 cycles and the plate read in a kinetic mode. Typically, the signal to noise using an endpoint analysis after the reads was at least three-fold. Alternatively, after Alamar blue reading, plates were rinsed with PBS, 50 ul of DMEM (high glucose) without phenol red was added and plates were then used for luciferase assay using the Promega Dual-Glo Luciferase Assay System.
Compound analysis was determined by quantification of the relative HCV replicon inhibition and the relative cytotoxicity values. To calculate cytoxicity values, the average Alamar Blue fluorescence signals from the control wells were set as 100% non-toxic. The individual signals in each of the compound test wells were then divided by the average control signal and multiplied by 100% to determine […]. To calculate the HCV replicon inhibition values, an average background value was obtained from the two wells containing the highest amount of HCV protease inhibitor at the end of the assay period. These numbers were similar to those obtained from naïve Huh-7 cells.
The background numbers were then subtracted from the average signal obtained from the control wells and this number was used as 100% activity. The individual signals in each of the compound test wells were then divided by the averaged control values after background subtraction and multiplied by 100% to determine percent activity. EC50 values for a protease inhibitor titration were calculated as the concentration which caused a 50% reduction in FRET or luciferase activity. The two numbers generated for the compound plate, percent cytoxicity and percent activity were used to determine compounds of interest for further analysis.

[1] = preincubation protocol, read-out: IC50

Structure (SMILES) | IC50 (HCV NS5B; [1]) [µM] | EC50 (HCV replicon cells; FRET assay, read-out: EC50) [µM] | IC50 (HCV NS5B) [µM] | EC50 (HCV replicon cells) [µM]
COc1ccc2c(c1)C=C(c1ncccc1C(=O)N(C)C)Cn1c-2c(C2CCCCC2)c2ccc(C(=O)NS(=O)(=O)N(C)C)cc21 | 0.00458 to 0.5 | 0.00458 to 0.5 |  | 
COc1ccc2c(c1)C=C(c1ncccc1S(=O)(=O)N1C3CCC1CN(C)C3)Cn1c-2c(C2CCCCC2)c2ccc(C(=O)NS(=O)(=O)N(C)C)cc21 |  |  | 0.00458 to 0.5 | 0.00458 to 0.5
COc1ccc2c(c1)C=C(c1ccccc1S(=O)(=O)N(C)CCN(C)C)Cn1c-2c(C2CCCCC2)c2ccc(C(=O)NS(=O)(=O)C(C)C)cc21 | 0.00458 to 0.5 | 0.00458 to 0.5 |  | 
COc1ccc2c(c1)C=C(c1ccccc1)Cn1c-2c(C2CCCCC2)c2ccc(C(=O)NS(=O)(=O)N(C)C)cc21 | 0.00458 to 0.5 | > 0.5 |  | 
COc1ccc2c(c1)C=C(c1cccc(OCCN3CCOCC3)c1)Cn1c-2c(C2CCCCC2)c2ccc(C(=O)O)cc21 | 0.00458 to 0.5 | > 0.5 |  | 
COc1ccc2c(c1)C=C(c1cc(C(F)(F)F)ccc1N1CCOCC1)Cn1c-2c(C2CCCCC2)c2ccc(C(=O)NS(=O)(=O)C(C)C)cc21 | > 0.5 | > 0.5 |  | 
COc1ccc2c(c1)C=C(c1ccccc1CS(C)(=O)=O)Cn1c-2c(C2CCCCC2)c2ccc(C(=O)NS(=O)(=O)C(C)C)cc21 | 0.00458 to 0.5 | 0.00458 to 0.5 |  | 
COc1ccc2c(c1)C=C(c1ncccc1C(=O)N1CCOCC1)Cn1c-2c(C2CCCCC2)c2ccc(C(=O)O)cc21 | 0.00458 to 0.5 | 0.00458 to 0.5 |  | 
COc1ccc2c(c1)C=C(c1nccc(C(=O)N3CCOCC3)n1)Cn1c-2c(C2CCCCC2)c2ccc(C(=O)NS(=O)(=O)N(C)C)cc21 | 0.00458 to 0.5 | 0.00458 to 0.5 |  | 
COc1ccc2c(c1)C=C(c1cccc(OCCN(C)C)c1)Cn1c-2c(C2CCCCC2)c2ccc(C(=O)O)cc21 | 0.00458 to 0.5 | > 0.5 |  | 
COc1ccc2c(c1)C=C(c1nccc(N(C)C)n1)Cn1c-2c(C2CCCCC2)c2ccc(C(=O)NS(=O)(=O)N(C)C)cc21 | 0.00458 to 0.5 | > 0.5 |  | 
COc1ccc2c(c1)C=C(c1ncccc1C(=O)N1C3CCC1CN(C)C3)Cn1c-2c(C2CCCCC2)c2ccc(C(=O)NS(=O)(=O)N(C)C)cc21 |  |  | 0.00458 to 0.5 | 0.00458 to 0.5
COc1ccc2c(c1)C=C(c1ccc3sc(C)nc3c1)Cn1c-2c(C2CCCCC2)c2ccc(C(=O)O)cc21 | 0.00458 to 0.5 | > 0.5 |  | 
COc1ccc2c(c1)C=C(c1ccccc1C(=O)N1CCOCC1)Cn1c-2c(C2CCCCC2)c2ccc(C(=O)OC(C)(C)C)cc21 | > 0.5 | > 0.5 |  | 
COc1ccc2c(c1)C=C(c1ccccc1C(=O)N1C3CCC1CN(C)C3)Cn1c-2c(C2CCCCC2)c2ccc(C(=O)OC(C)(C)C)cc21 |  |  | > 0.5 | > 0.5
COc1ccc2c(c1)C=C(c1ccccc1NC(=O)C1CC1)Cn1c-2c(C2CCCCC2)c2ccc(C(=O)NS(=O)(=O)C(C)C)cc21 | 0.00458 to 0.5 | 0.00458 to 0.5 |  | 
COc1ccc2c(c1)C=C(c1ncccc1N(C)C)Cn1c-2c(C2CCCCC2)c2ccc(C(=O)O)cc21 | 0.00458 to 0.5 | 0.00458 to 0.5 |  | 
COc1ccc2c(c1)C=C(c1ncccc1N1CC(C)(C)C1=O)Cn1c-2c(C2CCCCC2)c2ccc(C(=O)NS(=O)(=O)N(C)C)cc21 | 0.00458 to 0.5 | 0.00458 to 0.5 |  | 
COc1ccc2c(c1)C1CC1(c1ncccc1C(=O)N1CCN(C)CC1)Cn1c-2c(C2CCCCC2)c2ccc(C(=O)NS(=O)(=O)N(C)C)cc21 (stereo not shown) | 0.00458 to 0.5 | 0.00458 to 0.5 |  | 
COc1ccc2c(c1)C=C(c1ccccc1OCCN1CCOCC1)Cn1c-2c(C2CCCCC2)c2ccc(C(=O)NS(=O)(=O)C(C)C)cc21 | 0.00458 to 0.5 | 0.00458 to 0.5 |  | 
COc1ccc2c(c1)C=C(c1cc(C(=O)N3CCOCC3)ccn1)Cn1c-2c(C2CCCCC2)c2ccc(C(=O)O)cc21 | > 0.5 | > 0.5 |  | 
COc1ccc2c(c1)C=C(c1ncccc1C(=O)N1C3CCC1CN(C)C3)Cn1c-2c(C2CCCCC2)c2ccc(C(=O)O)cc21 |  |  | 0.00458 to 0.5 | 0.00458 to 0.5
COc1ccc2c(c1)C=C(c1ccccc1CN1CCOCC1)Cn1c-2c(C2CCCCC2)c2ccc(C(=O)NS(=O)(=O)C(C)C)cc21 | 0.00458 to 0.5 | 0.00458 to 0.5 |  | 
COc1ccc2c(c1)C=C(c1ncccc1N(C)C)Cn1c-2c(C2CCCCC2)c2ccc(C(=O)NS(=O)(=O)N(C)C)cc21 | 0.00458 to 0.5 | 0.00458 to 0.5 |  | 
COc1ccc2c(c1)CC(c1ncccc1C(=O)N1CCOCC1)Cn1c-2c(C2CCCCC2)c2ccc(C(=O)NS(=O)(=O)N(C)C)cc21 (stereo not shown) | 0.00458 to 0.5 | 0.00458 to 0.5 |  | 
COc1ccc2c(c1)C=C(c1ccccc1OC(F)(F)C(F)(F)F)Cn1c-2c(C2CCCCC2)c2ccc(C(=O)NS(=O)(=O)C(C)C)cc21 | 0.00458 to 0.5 | > 0.5 |  | 
